Results published in ChEMBL document CHEMBL3045370, “Design and synthesis of 6-alkyoxyl[1,2,4]triazolo[1,5-a]quinazoline derivatives with anticonvulsant activity” (Med Chem Res, 2012).
Calls of active or inactive are those of the source. No cut-off for these calls is given here.

Tested on: not listed separately
Assay: Neurotoxicity against ip dosed Mus musculus Kunming (mouse) assessed as inability to maintain equilibrium on rod measured for 1 min by rota rod test
Type: toxicity, organism-based
Settings: in vivo

Question: For `NC(=O)N1c2ccccc2C=Cc2ccccc21` [CARBAMAZEPINE], which TD50 at 1 min is on record?
Answer: Its TD50 at 1 min is 76.1 mg/kg.

Question: Which TD50 at 1 min does the source give for `c1ccc(COc2cccc3c2cnc2ncnn23)cc1` here?
Answer: The TD50 at 1 min was 710 mg/kg.

Tested on: Mus musculus
Assay: Anticonvulsant activity in ip dosed Mus musculus Kunming (mouse) assessed as protection against maximal electroshock-induced seizure administered 30 min prior to testing
Type: functional
Settings: not given

Question: For `NC(=O)N1c2ccccc2C=Cc2ccccc21` [CARBAMAZEPINE], which ED50 is on record?
Answer: The ED50 was 11.8 mg/kg.

Question: For `c1ccc(COc2cccc3c2cnc2ncnn23)cc1`, which ED50 is on record?
Answer: Its ED50 is 78.9 mg/kg.

Tested on: Mus musculus
Assay: Anticonvulsant activity in Mus musculus Kunming (mouse) assessed as protection against maximal electroshock-induced seizure at 100 mg/kg, ip administered 30 min prior to testing
Type: functional, organism-based
Set-up: dose 100 mg/kg
Settings: not given

Question: For `Clc1ccccc1COc1cccc2c1cnc1ncnn12`, which Activity is on record?
Answer: Its Activity is “inactive”.

Question: Which Activity does the source give for `N#Cc1ccc(COc2cccc3c2cnc2ncnn23)cc1` here?
Answer: The Activity was “inactive”.

Question: Which Activity does the source give for `Fc1ccc(COc2cccc3c2cnc2ncnn23)cc1` here?
Answer: The Activity was “inactive”.

Question: For `CCCCCCCCCCOc1cccc2c1cnc1ncnn12`, which Activity is on record?
Answer: The Activity was “inactive”.

Question: With `c1ccc(COc2cccc3c2cnc2ncnn23)cc1` as the compound, how does the Activity read?
Answer: Its Activity is “Active”.

Question: For `CCCCCOc1cccc2c1cnc1ncnn12`, which Activity is on record?
Answer: The Activity was “Active”.

Question: For `Fc1ccccc1COc1cccc2c1cnc1ncnn12`, which Activity is on record?
Answer: Its Activity is “inactive”.

Question: For `COc1ccc(COc2cccc3c2cnc2ncnn23)cc1`, which Activity is on record?
Answer: The Activity was “inactive”.

Question: Which Activity does the source give for `CCCCCCCOc1cccc2c1cnc1ncnn12` here?
Answer: Its Activity is “inactive”.

Question: For `Brc1ccccc1COc1cccc2c1cnc1ncnn12`, which Activity is on record?
Answer: Its Activity is “inactive”.

Question: For `N#Cc1ccccc1COc1cccc2c1cnc1ncnn12`, which Activity is on record?
Answer: Its Activity is “inactive”.

Question: For `Clc1cccc(COc2cccc3c2cnc2ncnn23)c1`, which Activity is on record?
Answer: Its Activity is “inactive”.

Question: Which Activity does the source give for `Clc1ccc(COc2cccc3c2cnc2ncnn23)cc1` here?
Answer: The Activity was “inactive”.

Question: With `CCCCOc1cccc2c1cnc1ncnn12` as the compound, how does the Activity read?
Answer: The Activity was “inactive”.

Question: For `Fc1cccc(COc2cccc3c2cnc2ncnn23)c1`, which Activity is on record?
Answer: The Activity was “inactive”.

Question: Which Activity does the source give for `CCCCCCCCOc1cccc2c1cnc1ncnn12` here?
Answer: Its Activity is “inactive”.

Question: Which Activity does the source give for `Clc1ccc(COc2cccc3c2cnc2ncnn23)c(Cl)c1` here?
Answer: Its Activity is “inactive”.

Question: For `Cc1ccc(COc2cccc3c2cnc2ncnn23)cc1`, which Activity is on record?
Answer: The Activity was “inactive”.

Question: Which Activity does the source give for `CCCCCCOc1cccc2c1cnc1ncnn12` here?
Answer: Its Activity is “inactive”.

Tested on: not listed separately
Assay: Protective index, ratio of TD50 for neurotoxicity to ED50 for anticonvulsant activity in Mus musculus Kunming (mouse)
Type: toxicity, organism-based
Settings: in vivo, read-out: Ratio TD50/ED50

Question: Which selectivity ratio does the source give for `c1ccc(COc2cccc3c2cnc2ncnn23)cc1` here?
Answer: The selectivity ratio was 9.
